In the supplement of paper PMC10307832:

Assays:
Assay in all cases: relative viability (nuclei count vs DMSO), 5 days (fraction); higher = more cells survive
Dovitinib = compound: CN1CCN(c2ccc3nc(-c4c(N)c5c(F)cccc5[nH]c4=O)[nH]c3c2)CC1 [Dovitinib]
Procedure, shortened: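 Viability was read as treated-well nuclei divided by vehicle-well nuclei, using the median across plates. Lung cancer cell lines in 1536-well plates were kept overnight at 37 °C, pinned with five √10-spaced library-drug doses, and after 5 days were Hoechst-stained, imaged at 4× and counted in MetaXpress. Plates passed only with control CV below 25% and at least one doubling.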

Dovitinib + Phenformin = compound: CN1CCN(c2ccc3nc(-c4c(N)c5c(F)cccc5[nH]c4=O)[nH]c3c2)CC1 [Dovitinib] + N=C(N)NC(=N)NCCc1ccccc1 [Phenformin] (partner 250 µM)
Procedure, shortened: (§1)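 Dosing by pin tool came one day after lung cancer cell lines were seeded in 1536-well plates, using either one drug or a fixed anchor-drug dose plus five library-drug doses (not always all listed) in √10 steps. After 5 days, nuclei were counted on 4× images. Relative viability is treated-well nuclei count divided by vehicle-well nuclei count, and values are medians of duplicate plates.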

Dovitinib + OSI-027 = compound: CN1CCN(c2ccc3nc(-c4c(N)c5c(F)cccc5[nH]c4=O)[nH]c3c2)CC1 [Dovitinib] + COc1cccc2cc(-c3nc([C@H]4CC[C@H](C(=O)O)CC4)n4ncnc(N)c34)[nH]c12 [OSI-027] (partner 0.5 µM)
Procedure, shortened: as §1

Dovitinib + Trametinib = compound: CN1CCN(c2ccc3nc(-c4c(N)c5c(F)cccc5[nH]c4=O)[nH]c3c2)CC1 [Dovitinib] + CC(=O)Nc1cccc(-n2c(=O)n(C3CC3)c(=O)c3c(Nc4ccc(I)cc4F)n(C)c(=O)c(C)c32)c1 [Trametinib] (partner 0.02 µM)
Procedure, shortened: as §1

Cell Line | relative viability (Dovitinib; 0.02 µM) | relative viability (Dovitinib; 0.06325 µM) | relative viability (Dovitinib; 0.2 µM) | relative viability (Dovitinib; 0.6325 µM) | relative viability (Dovitinib; 2 µM) | relative viability (Dovitinib + Phenformin; first compound 0.02 µM) | relative viability (Dovitinib + Phenformin; first compound 0.06325 µM) | relative viability (Dovitinib + Phenformin; first compound 0.2 µM) | relative viability (Dovitinib + Phenformin; first compound 0.6325 µM) | relative viability (Dovitinib + Phenformin; first compound 2 µM) | relative viability (Dovitinib + OSI-027; first compound 0.02 µM) | relative viability (Dovitinib + OSI-027; first compound 0.06325 µM) | relative viability (Dovitinib + OSI-027; first compound 0.2 µM) | relative viability (Dovitinib + OSI-027; first compound 0.6325 µM) | relative viability (Dovitinib + OSI-027; first compound 2 µM) | relative viability (Dovitinib + Trametinib; first compound 0.02 µM) | relative viability (Dovitinib + Trametinib; first compound 0.06325 µM) | relative viability (Dovitinib + Trametinib; first compound 0.2 µM) | relative viability (Dovitinib + Trametinib; first compound 0.6325 µM) | relative viability (Dovitinib + Trametinib; first compound 2 µM)
HCC-78 | 1.02 | 0.809 | 1.05 | 1.04 | 0.952 | 0.769 | 0.688 | 0.716 | 0.902 | 0.729 | 0.384 | 0.544 | 0.373 | 0.403 | 0.388 | 0.643 | 0.663 | 0.762 | 0.813 | 0.746
HCC-366 | 0.989 | 0.978 | 0.993 | 0.973 | 0.982 | 0.628 | 0.6 | 0.636 | 0.57 | 0.641 | 0.807 | 0.829 | 0.848 | 0.914 | 0.791 | 0.405 | 0.379 | 0.338 | 0.323 | 0.371
HCC-827 | 1.05 | 1.01 | 1.05 | 1.1 | 1.03 | 0.395 | 0.402 | 0.426 | 0.41 | 0.405 | 0.797 | 0.791 | 0.818 | 0.833 | 0.759 | 0.553 | 0.553 | 0.565 | 0.603 | 0.57
HOP-62 | 0.907 | 1.03 | 1.03 | 1.06 | 1.04 | 0.616 | 0.713 | 0.742 | 0.55 | 0.646 | 0.794 | 0.79 | 0.866 | 0.925 | 0.855 | 0.368 | 0.386 | 0.397 | 0.392 | 0.352
IA-LM | 0.864 | 1.02 | 0.962 | 0.989 | 0.873 | – | – | – | – | – | – | – | – | – | – | – | – | – | – | –
LC-2-ad | 0.977 | 0.966 | 0.965 | 0.983 | 0.98 | 0.644 | 0.543 | 0.621 | 0.517 | 0.606 | 0.879 | 0.929 | 0.984 | 0.744 | 0.831 | 0.92 | 0.903 | 0.873 | 0.927 | 0.815
LCLC-97TM1 | 1.07 | 0.785 | 1.01 | 1 | 0.979 | 0.354 | 0.412 | 0.431 | 0.43 | 0.428 | 0.77 | 0.486 | 0.561 | 0.59 | 0.544 | 0.267 | 0.204 | 0.199 | 0.196 | 0.203
LCLC-103H | 0.975 | 0.931 | 1.03 | 1.06 | 0.992 | 0.357 | 0.331 | 0.336 | 0.345 | 0.305 | 0.415 | 0.477 | 0.523 | 0.452 | 0.479 | 0.683 | 0.723 | 0.622 | 0.556 | 0.667
LK-2 | 0.944 | 0.974 | 0.895 | 0.975 | 0.847 | 0.539 | 0.306 | 0.38 | 0.486 | 0.342 | 0.187 | 0.192 | 0.202 | 0.252 | 0.173 | 0.758 | 0.751 | 0.784 | 0.809 | 0.585
